Columns and labels:
[1] = In vivo drug metabolism in human urine assessed as 5-(aminomethyl)-2-(difluoromethyl)-N-(4-methyl-5-(4-(trifluoromethyl)phenyl)-1H-imidazol-2-yl)nicotinamide formation by HPLC-MS analysis; format: ADME, organism-based
[2] = Drug metabolism in human hepatocytes assessed as 2-(difluoromethyl)-5-((3-hydroxy-2-methylpropanamido)methyl)-N-(4-methyl-5-(4-(trifluoromethyl)phenyl)-1H-imidazol-2-yl)nicotinamide formation at 2 uM after 4 hrs by LC-MS/MS analysis; format: ADME, cell-based, Hepatocyte
[3] = Drug metabolism in human hepatocytes assessed as 4-methyl-5-(4-(trifluoromethyl)phenyl)-1H-imidazol-2-amine formation at 2 uM after 4 hrs by LC-MS/MS analysis; format: ADME, cell-based, Hepatocyte
[4] = In vivo drug metabolism in human urine assessed as 2-(difluoromethyl)-5-((2-hydroxy-2-methylpropanamido)methyl)-N-(4-methyl-5-(4-(trifluoromethyl)phenyl)-1H-imidazol-2-yl)nicotinamide formation by HPLC-MS analysis; format: ADME, organism-based
[5] = In vivo drug metabolism in human plasma assessed as 2-(difluoromethyl)-5-((2-hydroxy-2-methylpropanamido)methyl)-N-(4-methyl-5-(4-(trifluoromethyl)phenyl)-1H-imidazol-2-yl)nicotinamide formation HPLC-MS analysis; format: ADME, organism-based
[6] = In vivo drug metabolism in human plasma assessed as 2-(difluoromethyl)-5-((3-hydroxy-2-methylpropanamido)methyl)-N-(4-methyl-5-(4-(trifluoromethyl)phenyl)-1H-imidazol-2-yl)nicotinamide formation HPLC-MS analysis; format: ADME, organism-based
[7] = Drug metabolism in Sprague-Dawley rat plasma assessed as 4-methyl-5-(4-(trifluoromethyl)phenyl)-1H-imidazol-2-amine formation at 1000 mg/kg, po measured after 2 hrs post dose by LC/MS analysis; format: ADME, organism-based; conditions: in vivo
[8] = Drug metabolism in Sprague-Dawley rat plasma assessed as 2-(difluoromethyl)-5-((3-hydroxy-2-methylpropanamido)methyl)-N-(4-methyl-5-(4-(trifluoromethyl)phenyl)-1H-imidazol-2-yl)nicotinamide formation at 1000 mg/kg, po measured after 2 hrs post dose by LC/MS analysis; format: ADME, organism-based; conditions: in vivo
[9] = Drug metabolism in dog hepatocytes assessed as 2-(difluoromethyl)-5-((2-hydroxy-2-methylpropanamido)methyl)-N-(4-methyl-5-(4-(trifluoromethyl)phenyl)-1H-imidazol-2-yl)nicotinamide formation at 2 uM after 4 hrs by LC-MS/MS analysis; format: ADME, cell-based, Canis lupus familiaris, Hepatocyte
[10] = Drug metabolism in human liver microsomes assessed as metabolite M9 formation at 2 uM in presence of 1:1 ratio of unlabeled GSH and [glycine 13C2,15N]-labelled GSH after 0.5 hrs by HPLC-MS analysis; format: ADME, microsome
[11] = Drug metabolism in Beagle dog plasma assessed as 2-(difluoromethyl)-5-((2-hydroxy-2-methylpropanamido)methyl)-N-(4-methyl-5-(4-(trifluoromethyl)phenyl)-1H-imidazol-2-yl)nicotinamide formation at 300 to 600 mg/kg, po measured after 2 hrs post dose by LC/MS analysis; format: ADME, organism-based, Canis lupus familiaris; conditions: in vivo
[12] = Drug metabolism in Beagle dog plasma assessed as 4-methyl-5-(4-(trifluoromethyl)phenyl)-1H-imidazol-2-amine formation at 300 to 600 mg/kg, po measured after 2 hrs post dose by LC/MS analysis; format: ADME, organism-based, Canis lupus familiaris; conditions: in vivo
[13] = Drug metabolism in rat hepatocytes assessed as metabolite M7 formation at 2 uM after 4 hrs by LC-MS/MS analysis; format: ADME, cell-based, Hepatocyte
[14] = Drug metabolism in dog hepatocytes assessed as N-carbamimidoyl-2-(difluoromethyl)-5-(isobutyramidomethyl)nicotinamide formation at 2 uM after 4 hrs by LC-MS/MS analysis; format: ADME, cell-based, Canis lupus familiaris, Hepatocyte
[15] = Drug metabolism in Beagle dog plasma assessed as 2-(difluoromethyl)-5-((3-hydroxy-2-methylpropanamido)methyl)-N-(4-methyl-5-(4-(trifluoromethyl)phenyl)-1H-imidazol-2-yl)nicotinamide formation at 300 to 600 mg/kg, po measured after 2 hrs post dose by LC/MS analysis; format: ADME, organism-based, Canis lupus familiaris; conditions: in vivo
[16] = Drug metabolism in rat hepatocytes assessed as N-carbamimidoyl-2-(difluoromethyl)-5-(isobutyramidomethyl)nicotinamide formation at 2 uM after 4 hrs by LC-MS/MS analysis; format: ADME, cell-based, Hepatocyte
[17] = Drug metabolism in human hepatocytes assessed as 2-(difluoromethyl)-5-((2-hydroxy-2-methylpropanamido)methyl)-N-(4-methyl-5-(4-(trifluoromethyl)phenyl)-1H-imidazol-2-yl)nicotinamide formation at 2 uM after 4 hrs by LC-MS/MS analysis; format: ADME, cell-based, Hepatocyte
[18] = In vivo drug metabolism in human plasma assessed as 2-(difluoromethyl)-5-(methacrylamidomethyl)-N-(4-methyl-5-(4-(trifluoromethyl)phenyl)-1H-imidazol-2-yl)nicotinamide formation HPLC-MS analysis; format: ADME, organism-based
[19] = Drug metabolism in Sprague-Dawley rat plasma assessed as 2-(difluoromethyl)-5-((2-hydroxy-2-methylpropanamido)methyl)-N-(4-methyl-5-(4-(trifluoromethyl)phenyl)-1H-imidazol-2-yl)nicotinamide formation at 1000 mg/kg, po measured after 2 hrs post dose by LC/MS analysis; format: ADME, organism-based; conditions: in vivo
[20] = Drug metabolism in rat hepatocytes assessed as 4-methyl-5-(4-(trifluoromethyl)phenyl)-1H-imidazol-2-amine formation at 2 uM after 4 hrs by LC-MS/MS analysis; format: ADME, cell-based, Hepatocyte
[21] = Drug metabolism in rat hepatocytes assessed as 2-(difluoromethyl)-5-(methacrylamidomethyl)-N-(4-methyl-5-(4-(trifluoromethyl)phenyl)-1H-imidazol-2-yl)nicotinamide formation at 2 uM after 4 hrs by LC-MS/MS analysis; format: ADME, cell-based, Hepatocyte
[22] = Drug metabolism in rat hepatocytes assessed as 2-(difluoromethyl)-5-((2-hydroxy-2-methylpropanamido)methyl)-N-(4-methyl-5-(4-(trifluoromethyl)phenyl)-1H-imidazol-2-yl)nicotinamide formation at 2 uM after 4 hrs by LC-MS/MS analysis; format: ADME, cell-based, Hepatocyte
[23] = Drug metabolism in human hepatocytes assessed as metabolite M7 formation at 2 uM after 4 hrs by LC-MS/MS analysis; format: ADME, cell-based, Hepatocyte
[24] = Drug metabolism in human hepatocytes assessed as N-carbamimidoyl-2-(difluoromethyl)-5-(isobutyramidomethyl)nicotinamide formation at 2 uM after 4 hrs by LC-MS/MS analysis; format: ADME, cell-based, Hepatocyte
[25] = In vivo drug metabolism in human urine assessed as 2-(difluoromethyl)-5-((3-hydroxy-2-methylpropanamido)methyl)-N-(4-methyl-5-(4-(trifluoromethyl)phenyl)-1H-imidazol-2-yl)nicotinamide formation by HPLC-MS analysis; format: ADME, organism-based
[26] = In vivo drug metabolism in human urine assessed as N-carbamimidoyl-2-(difluoromethyl)-5-(isobutyramidomethyl)nicotinamide formation by HPLC-MS analysis; format: ADME, organism-based
[27] = Drug metabolism in rat hepatocytes assessed as 2-(difluoromethyl)-5-((3-hydroxy-2-methylpropanamido)methyl)-N-(4-methyl-5-(4-(trifluoromethyl)phenyl)-1H-imidazol-2-yl)nicotinamide formation at 2 uM after 4 hrs by LC-MS/MS analysis; format: ADME, cell-based, Hepatocyte
[28] = Drug metabolism in Sprague-Dawley rat plasma assessed as 5-(aminomethyl)-2-(difluoromethyl)-N-(4-methyl-5-(4-(trifluoromethyl)phenyl)-1H-imidazol-2-yl)nicotinamide formation at 1000 mg/kg, po measured after 2 hrs post dose by LC/MS analysis; format: ADME, organism-based; conditions: in vivo
[29] = Drug metabolism in human liver microsomes assessed as metabolite M7 formation at 2 uM in presence of 1:1 ratio of unlabeled GSH and [glycine 13C2,15N]-labelled GSH after 0.5 hrs by HPLC-MS analysis; format: ADME, microsome
[30] = Drug metabolism in human liver microsomes assessed as metabolite M6 formation at 2 uM in presence of 1:1 ratio of unlabeled GSH and [glycine 13C2,15N]-labelled GSH after 0.5 hrs by HPLC-MS analysis; format: ADME, microsome
[31] = Drug metabolism in dog hepatocytes assessed as M2 metabolite formation at 2 uM after 4 hrs by LC-MS/MS analysis; format: ADME, cell-based, Canis lupus familiaris, Hepatocyte
[32] = Drug metabolism in human hepatocytes assessed as 2-(difluoromethyl)-5-((3-hydroxy-2,2-dimethylpropanamido)methyl)-N-(4-methyl-5-(4-(trifluoromethyl)phenyl)-1H-imidazol-2-yl)nicotinamide formation at 2 uM after 4 hrs by LC-MS/MS analysis; format: ADME, cell-based, Hepatocyte
[33] = Drug metabolism in rat hepatocytes assessed as 2-(difluoromethyl)-5-((3-hydroxy-2,2-dimethylpropanamido)methyl)-N-(4-methyl-5-(4-(trifluoromethyl)phenyl)-1H-imidazol-2-yl)nicotinamide formation at 2 uM after 4 hrs by LC-MS/MS analysis; format: ADME, cell-based, Hepatocyte
[34] = Drug metabolism in dog hepatocytes assessed as 2-(difluoromethyl)-5-((3-hydroxy-2,2-dimethylpropanamido)methyl)-N-(4-(hydroxymethyl)-5-(4-(trifluoromethyl)phenyl)-1H-imidazol-2-yl)nicotinamide formation at 2 uM after 4 hrs by LC-MS/MS analysis; format: ADME, cell-based, Canis lupus familiaris, Hepatocyte
[35] = Drug metabolism in dog hepatocytes assessed as N-carbamimidoyl-2-(difluoromethyl)-5-(pivalamidomethyl)nicotinamide formation at 2 uM after 4 hrs by LC-MS/MS analysis; format: ADME, cell-based, Canis lupus familiaris, Hepatocyte
[36] = Drug metabolism in human hepatocytes assessed as N-carbamimidoyl-2-(difluoromethyl)-5-(pivalamidomethyl)nicotinamide formation at 2 uM after 4 hrs by LC-MS/MS analysis; format: ADME, cell-based, Hepatocyte
[37] = Drug metabolism in rat hepatocytes assessed as N-carbamimidoyl-2-(difluoromethyl)-5-(pivalamidomethyl)nicotinamide formation at 2 uM after 4 hrs by LC-MS/MS analysis; format: ADME, cell-based, Hepatocyte
[38] = Drug metabolism in Sprague-Dawley rat plasma assessed as N-(4-methyl-5-(4-(trifluoromethyl)phenyl)-1H-imidazol-2-yl)acetamide formation at 1000 mg/kg, po measured after 2 hrs post dose by LC/MS analysis; format: ADME, organism-based; conditions: in vivo
[39] = Drug metabolism in Beagle dog plasma assessed as N-(4-methyl-5-(4-(trifluoromethyl)phenyl)-1H-imidazol-2-yl)acetamide formation at 300 to 600 mg/kg, po measured after 2 hrs post dose by LC/MS analysis; format: ADME, organism-based, Canis lupus familiaris; conditions: in vivo
[40] = Drug metabolism in human liver microsomes assessed as M5 metabolite formation at 2 uM in presence of 1:1 ratio of unlabeled GSH and [glycine 13C2,15N]-labelled GSH after 0.5 hrs by HPLC-MS analysis; format: ADME, microsome
[41] = Drug metabolism in dog hepatocytes assessed as 2-(difluoromethyl)-5-((3-hydroxy-2,2-dimethylpropanamido)methyl)-N-(4-methyl-5-(4-(trifluoromethyl)phenyl)-1H-imidazol-2-yl)nicotinamide formation at 2 uM after 4 hrs by LC-MS/MS analysis; format: ADME, cell-based, Canis lupus familiaris, Hepatocyte
[42] = Drug metabolism in human liver microsomes assessed as metabolite M2 formation at 2 uM in presence of 1:1 ratio of unlabeled GSH and [glycine 13C2,15N]-labelled GSH after 0.5 hrs by HPLC-MS analysis; format: ADME, microsome
[43] = Drug metabolism in Beagle dog plasma assessed as (2S,3S,4S,5R,6R)-3,4,5-trihydroxy-6-(4-methyl-5-(4-(trifluoromethyl)phenyl)-1H-imidazol-2-ylamino)tetrahydro-2H-pyran-2-carboxylic acid formation at 300 to 600 mg/kg, po measured after 2 hrs post dose by LC/MS analysis; format: ADME, organism-based, Canis lupus familiaris; conditions: in vivo
[44] = Drug metabolism in rat hepatocytes assessed as M2 metabolite formation at 2 uM after 4 hrs by LC-MS/MS analysis; format: ADME, cell-based, Hepatocyte
[45] = Drug metabolism in human hepatocytes assessed as M2 metabolite formation at 2 uM after 4 hrs by LC-MS/MS analysis; format: ADME, cell-based, Hepatocyte
[46] = Drug metabolism in human hepatocytes assessed as N-carbamimidoyl-2-chloro-5-(pivalamidomethyl)benzamide formation at 2 uM after 4 hrs by LC-MS/MS analysis; format: ADME, cell-based, Hepatocyte
[47] = Drug metabolism in rat hepatocytes assessed as N-carbamimidoyl-2-chloro-5-(pivalamidomethyl)benzamide formation at 2 uM after 4 hrs by LC-MS/MS analysis; format: ADME, cell-based, Hepatocyte
[48] = Drug metabolism in human hepatocytes assessed as 2-chloro-N-(4-(hydroxymethyl)-1H-imidazol-2-yl)-5-(pivalamidomethyl)benzamide formation at 2 uM after 4 hrs by LC-MS/MS analysis; format: ADME, cell-based, Hepatocyte
[49] = Drug metabolism in human hepatocytes assessed as 2-chloro-5-((3-hydroxy-2,2-dimethylpropanamido)methyl)-N-(4-methyl-1H-imidazol-2-yl)benzamide formation at 2 uM after 4 hrs by LC-MS/MS analysis; format: ADME, cell-based, Hepatocyte
[50] = Drug metabolism in rat hepatocytes assessed as 2-chloro-5-((3-hydroxy-2,2-dimethylpropanamido)methyl)-N-(4-methyl-1H-imidazol-2-yl)benzamide formation at 2 uM after 4 hrs by LC-MS/MS analysis; format: ADME, cell-based, Hepatocyte
[51] = Drug metabolism in rat hepatocytes assessed as 2-chloro-N-(4-(hydroxymethyl)-1H-imidazol-2-yl)-5-(pivalamidomethyl)benzamide formation at 2 uM after 4 hrs by LC-MS/MS analysis; format: ADME, cell-based, Hepatocyte

Measured: Drug metabolism

Cc1nc(NC(=O)c2cc(CNC(=O)C(C)C)cnc2C(F)F)[nH]c1-c1ccc(C(F)(F)F)cc1
Metabolite_Detected: [1] | [2] | [3] | [4] | [5] | [6] | [7] | [8] | [9] | [10] | [11] | [12] | [13] | [14] | [15] | [16] | [17] | [18] | [19] | [20] | [21] | [22] | [23] | [24] | [25] | [26] | [27] | [28] | [29]

Cc1nc(NC(=O)c2cc(CNC(=O)C(C)(C)C)cnc2C(F)F)[nH]c1-c1ccc(C(F)(F)F)cc1
Metabolite_Detected: [30] | [31] | [32] | [33] | [34] | [35] | [36] | [37] | [38] | [39] | [40] | [41] | [42] | [43] | [44] | [45]

Cc1c[nH]c(NC(=O)c2cc(CNC(=O)C(C)(C)C)ccc2Cl)n1
Metabolite_Detected: [46] | [47] | [48] | [49] | [50] | [51]
